# “Also recorded” adds a separate entry of the source.
# Assays:
# Assay type in all cases: in vivo, rat
# [1] = system: Orexin A (ORX-A) producing neurons in the DMH/PeF; assay: c-Fos induction in ORX neurons of 1-AG and d-AG treated rats; details: 1-AG infused into DMH/PeF (3.5 nmol/0.5 μl per hour); vs d-AG treated control rats
# Protocol: Methods for perfusion and for verification of cannulae placements in experiment 12 were performed following procedures discussed herein. Briefly, 1-AG or d-AG treated rats received i.v. infusions of either lactate or saline vehicle over 15 min (n=6/group for 4 groups), were immediately tested in the SI test, then anesthetized and perfused with a 4% paraformaldehyde/1.5% sucrose solution and processed for immunohistochemistry 90 min following the onset of the i.v. infusions.
# Brain sections from all rats were immunostained with the appropriate primary antibody in a single immunohistochemical run, rather than in batches, with large volume incubations to limit variability in the quality of immunohistochemical staining among brain sections.
# Sections were washed in PBS and then incubated in 1% H2O2 in PBS for 20 min. Sections were washed in PBS then PBST then incubated 12-16 h in PBST with primary antibody. The following day, sections were incubated 2 h in the appropriate secondary antibody: biotinylated swine anti-rabbit IgG (c-Fos day 1, and orexin A or MCH day 2; cat no. E0353; DAKO, diluted 1:200). Sections were washed again for 30 min in PBST then incubated 1.5 h in an avidin-biotin-peroxidase complex (cat no. PK-6100, Vector Labs, diluted 1:200). […]
# [2] = system: c-Fos; assay: c-Fos immunoreactive cell counts in brain regions after FG-7142 challenge; details: FG-7142 7.5 mg/kg ip after vehicle (veh/FG) or SB334867 30 mg/kg ip (SB/FG); 90 min
# Protocol: Fifteen min after the FG-7142 injection, all rats were tested for anxiety behavior using a 5 min open field test (OFT); 5 min social interaction (SI) test; then a 5 min elevated plus maze (EPM) test. Ninety min following FG-7142 injections, rats were anaesthetized and then the brains were removed and processed for immunohistochemistry as described in detail in subsequent section.
# Ninety min following the initiation of treatment, rats were anaesthetised with an overdose of sodium pentobarbital (40 mg, i.p.) then perfused transcardially with 0.05 M phosphate buffered saline (PBS; 250 ml), followed by 0.1 M sodium phosphate buffer (PB; 250 ml) containing 4% paraformaldehyde (PFA) and 3% sucrose. Brains were removed and post-fixed for 24 h in the same fixative, rinsed for 24 h in 0.1 M PB, then placed in cryoprotectant (30% sucrose in 0.1 M PB) for an additional 4-5 days. To maintain a consistent plane for coronal sections, brains were placed in a rat brain matrix (ASI instruments, Model No. RBM-4000C) and cut with a razor blade at the caudal border of the mammillary bodies. Brains were frozen in cooled liquid isopentane made by immersing a plastic vessel containing isopentane into a dewar flask containing liquid nitrogen. Serial coronal sections (30 μm) were cut using a cryostat and were immediately placed in cryoprotectant consisting of 27% ethylene glycol and 16% glycerol in 0.05 M PB to yield six alternate sets of sections. Sections were stored at −20° C. until immunohistochemical processing.
# All brain sections were immunostained with the c-Fos primary antibody in a single immunohistochemical run, rather than in batches, with large volume incubations to limit variability in the quality of immunohistochemical staining among brain sections. However, the forebrain was immunostained for c-Fos in one run and the brainstem (i.e., midbrain, pons and medulla) in another. Immunostaining for c-Fos protein was accomplished using an affinity-purified primary antibody directed at c-Fos (rabbit anti-human c-Fos polyclonal affinity-purified antibody, Cat. no. sc-52, Santa Cruz Biotechnology, San Diego, Calif.; diluted 1:10,000). Free-floating sections were washed in 0.1 M PBS for 30 min, then incubated in 1% H2O2 in PBS for 20 min. Sections were then washed 10 min in PBS and 20 min in PBS with 0.3% Triton X-100 (PBST). Sections were then incubated 12-16 h in PBST with primary antibody solution at room temperature. After a 30 min wash in PBST, sections were incubated for 2 hr in biotinylated goat anti-rabbit IgG (Cat no. BA-1000, Vector Laboratories, Burlinghame, Calif.; diluted 1:500). Sections were washed again for 30 min in PBST then incubated 1.5 hr in an avidin-biotin-peroxidase complex provided in a standard Vector Elite kit (Cat no. PK-6100, Vector Laboratories, diluted 1:200). The peroxidase substrate for the chromogen reaction was Vector SG, which was prepared as recommended by the manufacturer (Cat. no. SK-4700, Vector Laboratories). The substrate reaction was run for 20 min for the forebrain. All sections were mounted on clean glass slides, dried overnight, dehydrated and mounted with coverslips using DPX mounting medium (BDH Laboratory Supplies, Poole, UK). All washes and incubations were done at room temperature in 12-well polystyrene plates with low frequency shaking on an orbital shaker.
# Selection of anatomical levels for analysis of c-Fos-immunostained cells was conducted with reference to illustrations from a rat brain stereotaxic atlas (Paxinos and Watson, 1997). Selection of anatomical levels was also done in reference to major anatomical landmarks including white matter tracts and the ventricular systems.
# [3] = system: FG-7142 treated rats; assay: FG-7142-induced anxiety: open field, social interaction and elevated plus maze tests; details: Wistar rats; FG-7142 7.5 mg/kg ip, with or without SB334867 30 mg/kg ip
# Protocol: All experiments were conducted on adult male Wistar rats (250-300 g) purchased from Harlan Laboratories (Indianapolis, Ind. USA) and were housed individually in plastic cages under standard environmental conditions (22° C.; 12/12 light/dark cycle; lights on at 7:00 A.M.) for 7-10 days prior to the surgical manipulations. Food and water were provided ad libitum.
# The open-field arena covered an area of 90 cm×90 cm, with 40 cm high walls. The open-field arena was divided into a 6×6 grid of equally-sized squares using black tape (36 total squares) with 4 squares forming the centre; 12 squares forming the middle perimeter; and 20 squares forming the outer perimeter. The test started by placing a rat in the centre. The behavior of each rat in the open-field arena was recorded on video and scored afterwards by an observer blind to the experimental treatment of each rat. Time spent in each region of the open-field was recorded. In addition, locomotor activity was assessed by counting the number of times the rat's entire body (excluding tail) completely crossed into another square.
# Following the OFT, the experimental rat was placed in an open field (0.9 m long×0.9 m wide with walls 0.3 m high) with an untreated novel partner rat. A video camera was fixed above the box, and all behavioral tests were videotaped. During the 5 min test the total amount of time the treated rat initiates interaction with the partner rat is recorded (sniffing, grooming etc.) as described previously. Videotaped sessions were scored at a later time by a SDF (blind to treatments) and a decrease in total interaction time was taken as an increase in “anxiety” like behavior.
# Following the SI test, rats were place in the center area of the EPM where the two arms intersect. Unlike the SI test, the EPM measures many relevant anxiety related behaviors such as: no. of poke and full entries into and duration spent in closed versus open arm. […] Activity is measured using […] state of the art photobeams (16× beams and 16 Y beams) to provide the highest resolution system available (Automated EPM, Hamilton Kinder Scientific, San diego, CA).
# [4] = system: panic-prone (1-AG treated) rats; assay: Sodium lactate (NaLac) challenge in panic-prone (1-AG treated) rats: social interaction (SI) test; details: alprazolam 3 mg/kg; for anxiety-like responses (social interaction (SI) duration) after NaLac challenge: i.p. 30 min prior to NaLac, SB334867/SB408124 30 mg/kg, experiments 4 and 6
# Description: (§1) The minipump was then sutured into place subcutaneously at the nape of the neck. The concentration of the solutions was such that 3.5 nmol/[…] per hour of 1-AG or d-AG was infused continuously into the DMH/PeF region for the remainder of the given experiment. In the case of the siRNA experiments specialized T-cannulae were implanted permitting access to a removable 28 g injector to direct siRNA injections to the same location as the 1-AG infusions. Additionally these rats had guide cannulae directed to the opposite DMH/PeF for bilateral infusion of siRNA.
# (§2) Rats received intravenous (i.v.) infusions (10 ml over 15 min of either 0.5M NaLac or 0.9% isotonic saline (when applicable)) using a syringe pump at least five days following the initiation of 1-AG or d-AG infusions. Once a stable baseline was achieved, i.v. infusions began and cardiovascular and activity data were recorded for 15 min (similar to clinical NaLac infusions).
# Another SI test was performed 5 days following minipump infusions and immediately following saline or sodium lactate infusions.
# In experiment 3, an RNAase free environment was maintained throughout the injection procedure and all injectors, syringes and tubing were exposed to RNaseZAP and rinsed thoroughly with RNA-free water prior to siRNA injections. […] 48 hrs after siORX or siCON treatment, these rats were exposed to saline or NaLac infusions (siCon/Sal n=4, siORX/Sal n=6, siCON/Lac n=5, siORX/Lac n=6) and SI behavioral and cardiovascular responses were recorded, and were then sacrificed by rapid decapitation, following a brief (30 s) exposure to IsoFlurane® 1 hr after the intravenous infusions.
# In experiments 4-6, rats were made panic vulnerable with 1-AG. […] In experiment 5, baseline in an open field (OF) behavior test of anxiety was assessed (n=8) prior to 1-AG infusions. […] In experiment 7, control rats (no 1-AG or NaLac treatment) were assessed in a SI test. […]
# [5] = system: panic-prone (1-AG treated) rats; assay: Sodium lactate (NaLac) challenge in panic-prone rats: radio-telemetry of locomotor and cardiovascular (HR, MAP) responses; details: i.p. 30 min prior to NaLac, SB334867/SB408124 30 mg/kg, alprazolam 3 mg/kg, experiments 4 and 6
# Protocol: Telemetry probes (Data Science International, St. Paul Minn.) were surgically implanted into the abdomen of anaesthetize rats to measure locomotor responses. Cardiovascular responses were measured by a femoral arterial line connected to the telemetric probe which contained a pressure transducer (Data Science International, St. Paul Minn.).
# as §1, §2
# Cardiovascular responses (i.e., MAP and HR) were measured by a femoral arterial line connected to a telemetric probe which contained a pressure transducer (Cat. no. C50-PXT, Data Science International (DSI) St. Paul Minn.). […] MAP and HR were recorded continuously in freely moving conscious rats and are expressed as a 20 min time course. The data reported are changes in HR and MAP from the average of the baseline (t−5 to t−1) from each rat. […]
# In experiments 4-6, rats were made panic vulnerable with 1-AG. 5 days after 1-AG onset, in a counterbalanced design, rats received intraperitoneal (i.p.) injections of treatment drug or vehicle 30 min prior to i.v. infusions. […] In experiment 5, baseline in an open field (OF) behavior test of anxiety was assessed (n=8) prior to 1-AG infusions. […] Immediately following the NaLac challenge, rats were placed in the OF test. […] In experiment 6,1-AG treated rats received an injection of an alternative ORX1 receptor antagonist (30 mg/kg SB408124 (N-(6,8-Difluoro-2-methyl-4-quinolinyl)-N′-(4-(dimethylamino)phenyl)urea), Tocris, in 0.2 ml/100 g volume DMSO, n=4) or vehicle (0.2 ml/100 g volume DMSO, n=6) 30 min prior to NaLac. In experiment 7, control rats (no 1-AG or NaLac treatment) were assessed in a SI test.
# Adult male Sprague-Dawley rats were anesthetized and surgically implanted with telemetrical probes to measure cardiovascular activity prior to and during lactate infusions. After a 3 day recovery, rats were anaesthetized and had osmotic minipumps (previously filled with 1-AG) stereotaxically implanted unilaterally into the DMH. […] 1960, Tocris, in 0.2 ml/100 g volume DMSO, n=12], alprazolam (3 mg/kg, Sigma, in 0.2 ml/100 g volume DMSO, n=6) or vehicle (0.2 ml/100 g volume DMSO, n=11) 30 min prior lactate challenge.
smiles,measurement,setting,value
"C=CC[C@H](N)C(=O)O [1-AG, 1-allylglycine]",c-Fos immunoreactive ORX-A neurons in the DMH/PeF,[1],increased
CNC(=O)c1cc2c(cn1)[nH]c1ccccc12 [FG-7142],"Mean number of c-Fos immunoreactive cells, Amygdala (−2.56 mm bregma) BLA",[2],9 ± 4
same,"Mean number of c-Fos immunoreactive cells, Amygdala (−2.56 mm bregma) LA",[2],10 ± 4
same,"Mean number of c-Fos immunoreactive cells, Amygdala (−2.56 mm bregma) MeA",[2],85 ± 18
same,"Mean number of c-Fos immunoreactive cells, DRN (−7.80 mm bregma)",[2],1 ± 0
same,"Mean number of c-Fos immunoreactive cells, ILC (+2.60 mm bregma)",[2],12 ± 6
same,"Mean number of c-Fos immunoreactive cells, IPBN (−9.30 mm bregma)",[2],9 ± 3
same,"Mean number of c-Fos immunoreactive cells, LC (−10.04 mm bregma)",[2],48 ± 5
same,"Mean number of c-Fos immunoreactive cells, LSI (+0.20 mm bregma)",[2],12 ± 4
same,"Mean number of c-Fos immunoreactive cells, PRL (+2.60 mm bregma)",[2],3 ± 1
same,"Mean number of c-Fos immunoreactive cells, PeF (−3.14 mm bregma)",[2],67 ± 23
same,"Mean number of c-Fos immunoreactive cells, mPBN (−9.30 mm bregma)",[2],3 ± 1
same,time in open arms of elevated plus maze,[3],low open arm times
Cc1nnc2n1-c1ccc(Cl)cc1C(c1ccccc1)=NC2 [alprazolam],anxiety-like responses (social interaction (SI) duration) after NaLac challenge,[4],attenuated
same,"all lactate induced panic-like responses (SI, Activity, HR, MAP)","[4]; i.p. 30 min prior to lactate, SB334867 30 mg/kg",attenuated; also recorded: anti-panic effects
same,NaLac induced increases in general locomotor activity,[5],attenuated
same,NaLac induced increases in heart rate (HR),[5],attenuated
same,NaLac induced increases in mean arterial blood pressure (MAP),[5],attenuated
"Cc1cc(NC(=O)Nc2ccc(N(C)C)cc2)c2cc(F)cc(F)c2n1 [SB408124, N-(6,8-Difluoro-2-methyl-4-quinolinyl)-N′-(4-(dimethylamino)phenyl)urea]",anxiety-like responses (social interaction (SI) duration) after NaLac challenge,[4],did not significantly alter
same,NaLac induced increases in general locomotor activity,[5],did attenuate; also recorded: attenuated
same,NaLac induced increases in heart rate (HR),[5],did attenuate; also recorded: attenuated
same,NaLac induced increases in mean arterial blood pressure (MAP),[5],did not significantly alter

# From patent publication US8877773B2, “Methods for treating chronic obstructive pulmonary disease” (Indiana University Research and Technology Corporation, priority 2009, dated 2014)
